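Five compound concentrations were applied to cells in 96-well plates for 48 hours; endpoints were derived by simple linear interpolation of the resulting dose-response curve. The concentration for 50% growth inhibition is given as GI50. TGI: total growth inhibition.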
Key:
Assay in all cases: NCI anticancer screen, dose series, 48 h
OVCAR-5 ovarian = tested on: OVCAR-5 ovarian
SK-MEL-2 melanoma = tested on: SK-MEL-2 melanoma
SW-620 colon = tested on: SW-620 colon
OVCAR-3 ovarian = tested on: OVCAR-3 ovarian
KM12 colon = tested on: KM12 colon
SK-OV-3 ovarian = tested on: SK-OV-3 ovarian
HCT-15 colon = tested on: HCT-15 colon
NCI-H522 lung = tested on: NCI-H522 lung
NCI-H23 lung = tested on: NCI-H23 lung
MALME-3M melanoma = tested on: MALME-3M melanoma

Row | Structure (SMILES) | TGI (OVCAR-5 ovarian) [µM] | TGI (SK-MEL-2 melanoma) [µM] | TGI (SW-620 colon) [µM] | TGI (OVCAR-3 ovarian) [µM] | TGI (KM12 colon) [µM] | TGI (SK-OV-3 ovarian) [µM] | TGI (HCT-15 colon) [µM] | TGI (NCI-H522 lung) [µM] | TGI (NCI-H23 lung) [µM] | TGI (MALME-3M melanoma) [µM] | GI50 (HCT-15 colon) [µM] | GI50 (NCI-H522 lung) [µM]
1 | CC(C)(C)N(Cc1ccc2c(c1)OCO2)C(=O)/C=C\Sc1ccccc1 | > 100 | > 100 | > 100 | > 100 | > 100 | > 100 | > 100 | 59 | > 100 |  |  | 
2 | CCc1nc2ccc(NCCN(C)C)c3c(=O)c4ccccc4n1c23 | 6.69 | 6.98 | 4.99 | 4.45 | 6.42 | 13.3 | 4.66 | 4.89 | 3.23 | 7.47 |  | 
3 | Cc1nc2ccccc2c(/C=C/c2ccc(Cl)cc2)c1C(=O)/C=C/c1ccc(Cl)cc1 |  |  |  |  |  |  | 3.13 | 4.77 |  |  | 0.787 | 1.25
4 | Cc1ccccc1NC(=O)Cc1csc2[n+]1C(=O)/C(=C/c1ccc([N+](=O)[O-])cc1)S2 | > 100 | > 100 | > 100 | > 100 | > 100 | > 100 | > 100 |  | 84.3 |  |  | 
5 | C/C1=C\C=C(\C(C)C)CC/C(C(=O)O)=C\CC/C(C)=C/CC1 | 78 | 32.8 | > 100 | 31.4 | 41.8 | 64 | 51.1 | 39.5 | 42.7 | 52.2 |  | 
6 | COc1cc2nc(-c3cccs3)[nH]c(=O)c2cc1OC | > 100 | > 100 | > 100 | > 100 | > 100 | > 100 | > 100 | > 100 | > 100 | > 100 |  | 
7 | CCc1ccccc1NNc1cc(=O)[nH]c(=O)[nH]1 | 37.3 | 56.2 | 37.3 | 30.8 | 36 | 64.8 |  |  | > 100 |  |  | 
8 | CCOC(=O)N(c1ccccc1)N(CC)C(=O)/C(C)=N/Nc1ccc([N+](=O)[O-])cc1 |  | 30 | 36.7 | 31.1 | 29.2 | 37.1 | 30.3 | 29.3 | 36.1 | 33.5 |  | 
9 | CCOC(=O)C1=COC(C)(CCc2ccccc2)CC1=O (stereo not drawn) | > 100 | > 100 | > 100 | > 100 | > 100 | > 100 | > 100 | 89.8 | > 100 |  |  | 
10 | O=c1cnn(CCOCP(=O)(O)O)c(=O)[nH]1 | > 100 | > 100 | > 100 | > 100 | > 100 |  |  | > 100 | > 100 | > 100 |  | 
11 | COc1cc(N(Cc2ccc3oc(=O)c(-c4ccccc4)nc3c2)Cc2ccc3oc(=O)c(-c4ccccc4)nc3c2)cc(OC)c1OC | > 10 | > 10 | > 10 | > 10 | > 10 | > 10 | > 10 | > 10 | > 10 |  |  | 
12 | COc1ccc(C(C2=C(O)COC2=O)c2cc3c(cc2O)OCO3)cc1OC (stereo not drawn) | > 100 | > 100 | > 100 | > 100 | > 100 | > 100 | > 100 |  |  | > 100 |  | 
13 | O=[N+]([O-])c1ccc(O)c(/C=N/NC(=S)N2CCCCC2)c1 | > 100 | 50.4 | > 59 | > 100 | 40 | > 56.6 | 44.1 | > 45.3 | 32.9 | 10.3 |  | 
14 | COc1ccc(/C=C/C2=NN(c3cccc(S(=O)(=O)O)c3)C3(C2)SCC(=O)N3c2nc3ccccc3s2)cc1 (stereo not drawn) | > 100 | > 100 | > 100 |  | > 100 |  | > 100 | > 100 | > 100 | > 100 |  | 
15 | C[C@H]1S[C@H](c2c(Cl)cccc2Cl)N2Cc3ccccc3N=C12 | 37.5 | 26.1 | > 100 | 26.9 | 27.8 | 38.3 | 33.7 |  | 28.8 |  |  | 
16 | CC(=O)Oc1ccc(/C=C/C(=O)O[C@@H](C(=O)O)[C@@H](OC(=O)/C=C/c2ccc(OC(C)=O)c(OC(C)=O)c2)C(=O)O)cc1OC(C)=O | > 100 | > 100 | > 100 | > 100 | > 100 | > 100 | > 100 | > 100 | > 100 | > 100 |  | 
17 | CCOC(=O)Oc1ccc2c(c1)c(=O)c1c(NCCN(CC)CC)ccc3nnn2c31 | 22.7 | 27 | 13.2 | 19.7 | 14.9 | 22.6 | 16.6 | 6.61 | 18.1 | 22 |  | 
18 | Fc1cccc(F)c1C1SCc2nc3ccc(Cl)cc3n21 (stereo not drawn) | > 100 | > 100 | > 100 | > 100 | > 100 | > 100 | > 100 | > 100 | > 100 | > 100 |  | 
19 | COc1ccc(-n2sc3ncccc3c2=O)cc1 | 64.2 | > 100 | 79.6 | 60.8 | 34.5 | > 100 | 44.2 | 46.4 | 36.8 | 30.9 |  | 
20 | Cn1c(N/N=C/c2ccccc2)nc(-c2ccc([N+](=O)[O-])cc2)c(C#N)c1=O | > 100 | > 100 | > 100 | 44.9 | > 100 | > 100 | > 100 | > 100 | > 100 | > 100 |  | 
21 | C(=C\N1CCCCC1)/c1nnnn1-c1ccccc1 | > 100 |  | > 100 | 90.6 | > 100 | 63.3 | > 100 | > 100 | > 100 | > 100 |  | 
22 | O=C(NC(=S)NC(=O)c1cc(O)c(O)c(O)c1)c1cc(O)c(O)c(O)c1 | 78.8 | 40.4 | > 100 |  | 70.5 | > 100 | 67.8 | 70.3 | 55.4 |  |  | 
23 | NC(Cc1ccc(S(=O)(=O)O)cc1)C(=O)NC(Cc1ccc(S(=O)(=O)O)cc1)C(=O)O (stereo not drawn) | > 100 | > 100 | > 100 | > 100 | > 100 |  | > 100 | > 100 | > 100 | > 100 |  | 

Reference: PubChem BioAssay (NCI)
